Results taken from US12152012B2, “BRAG2 inhibitors and applications thereof” (CENTRE NATIONAL DE LA RECHERCHE SCIENTIFIQUE, priority 2018, dated 2024).

Experiments:
yeast ArfGEF Sec7p = biological target: T1, yeast ArfGEF Sec7p (Saccharomyces cerevisiae, UniProt P11075); test: Yeast chemogenomic screen; type: cell-based
T1 construct: endogenous in cells; host or cells: yeast

Sec7 domain of BRAG2 = biological target: T2, Sec7 domain of BRAG2 (Homo sapiens, UniProt Q6DN90); test: Nucleotide exchange fluorescence kinetics in solution, Sec7 domain with truncated Arf1; type: biochemical; settings: 50 μM, no membranes
T2 construct: human BRAG2^Sec7 (390-594) and BRAG2^Sec7PH (390-811); made in house
T2 sequence (Q6DN90 512-716): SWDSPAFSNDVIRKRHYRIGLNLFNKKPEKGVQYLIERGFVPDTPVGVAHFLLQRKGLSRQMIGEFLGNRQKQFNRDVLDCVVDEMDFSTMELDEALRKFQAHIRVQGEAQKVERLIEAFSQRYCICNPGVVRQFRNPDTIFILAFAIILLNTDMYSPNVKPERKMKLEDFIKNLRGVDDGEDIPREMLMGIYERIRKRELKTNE
Description: (§1) The effect of Bragsin1 on the GEF efficiency of representative human ArfGEFs was evaluated by fluorescence kinetics using highly purified recombinant Arf GTPases and ArfGEFs. In a first series of assays, the Sec7 domains of BIG1, a Golgi ArfGEF, and of ARNO, EFA6a and BRAG2, which function at the plasma membrane, were used. When tested in solution, Bragsin1 had no effect on the activation of Arf1 by any of these Sec7 domains (FIGS. 2a and 14). Separately, we reconstituted the activation of myristoylated Arf1 by the same ArfGEFs on liposomes using ArfGEF constructs that contain a membrane-binding domain (DCB-HUS domain for BIG1, PH domains for the other GEFs). […] BRAG2 activates several Arf isoforms, including the plasma membrane-located Arf6 isoform. […] Bragsin1 and Bragsin2 have the same IC50 towards BRAG2 ([…]) according to dose-response analysis, confirming that Bragsin1 and Bragsin2 can be used interchangeably (FIG. 2d). The specific inhibition of BRAG2 by Bragsin in vitro predicts that BRAG2 silencing by siRNA should yield the same phenotype as treatment by the small molecule. Silencing of BRAG2 induced the redistribution of TGN46 into tubular or punctate structures, which phenocopied the effects induced by Bragsin (FIGS. 2e, 17 and 18). […] Silencing of ARNO, which is located at the plasma membrane, had no effect on TGN46 distribution. Overexpression of BRAG2-mCherry rescued the dispersion of the TGN46 structure induced by Bragsin, which is consistent with the silencing experiments (FIG. 2f). Bragsin is a specific inhibitor of the ArfGEF BRAG2 in vitro and in cells according to these experiments. These oexperiments identify a mechanism of inhibition that requires the membrane to manifests itself. […]
(§2) Nucleotide exchange kinetics were monitored by tryptophan fluorescence with excitation/emission wavelengths of 292/340 nm using a Cary Eclipse fluorimeter (Varian) at 37° C. and under continuous stirring as described in ^50,51. For specificity assays, 50 μM of Bragsin1 or 0.25% DMSO were incubated for 2 min at 37° C. in HKM buffer (50 mM HEPES pH 7.4, 120 mM potassium acetate, 1 mM MgCl2 and 1 mM DTT) with either 1 μM of N-terminally truncated Arf-GDP and 100 nM of indicated Sec7 domain (in solution) or 0.4 μM of ^myrArf1 in the presence of 100 μM of liposomes and 2 to 100 nM of ArfGEFs as described in (Benabdi, S. et al. Biochemistry 56, 5125-5133 (2017) and Peurois, F. et al. Biochem J 474, 1259-1272 (2017). Nucleotide exchange rates (kobs) were determined from monoexponential fits and means are given as the percentage of control activity±SD. […]

Sec7 domain of ARNO = biological target: T3, Sec7 domain of ARNO (Homo sapiens, UniProt Q99418); test: as above; type: biochemical; settings: 50 μM, no membranes
T3 construct: ARNO^Sec7 (50-256), BIG1^Sec7 (691-889); made in house
T3 sequence (Q99418 50-256): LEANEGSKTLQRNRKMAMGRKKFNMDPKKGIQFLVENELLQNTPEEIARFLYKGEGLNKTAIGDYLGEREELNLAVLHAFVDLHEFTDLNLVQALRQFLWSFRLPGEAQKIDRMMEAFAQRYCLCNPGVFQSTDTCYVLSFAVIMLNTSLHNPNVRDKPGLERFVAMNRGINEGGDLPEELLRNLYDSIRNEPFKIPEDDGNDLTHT
Description: as §1, §2

Sec7 domain of BIG1 = biological target: T4, Sec7 domain of BIG1 (Homo sapiens, UniProt Q9Y6D6); test: as above; type: biochemical; settings: 50 μM, no membranes
T4 construct: BIG1^Sec7 (691-889), BIG1^DcbHusSec7 (2-888); made in house
T4 sequence (Q9Y6D6 691-889): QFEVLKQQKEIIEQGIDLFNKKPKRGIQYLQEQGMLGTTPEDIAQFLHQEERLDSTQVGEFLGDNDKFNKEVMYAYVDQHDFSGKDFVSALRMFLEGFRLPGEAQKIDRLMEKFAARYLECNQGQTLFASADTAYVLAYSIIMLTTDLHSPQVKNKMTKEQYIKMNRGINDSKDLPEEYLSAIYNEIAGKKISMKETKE
Description: as §1, §2

T1 sequence (P11075 whole entry): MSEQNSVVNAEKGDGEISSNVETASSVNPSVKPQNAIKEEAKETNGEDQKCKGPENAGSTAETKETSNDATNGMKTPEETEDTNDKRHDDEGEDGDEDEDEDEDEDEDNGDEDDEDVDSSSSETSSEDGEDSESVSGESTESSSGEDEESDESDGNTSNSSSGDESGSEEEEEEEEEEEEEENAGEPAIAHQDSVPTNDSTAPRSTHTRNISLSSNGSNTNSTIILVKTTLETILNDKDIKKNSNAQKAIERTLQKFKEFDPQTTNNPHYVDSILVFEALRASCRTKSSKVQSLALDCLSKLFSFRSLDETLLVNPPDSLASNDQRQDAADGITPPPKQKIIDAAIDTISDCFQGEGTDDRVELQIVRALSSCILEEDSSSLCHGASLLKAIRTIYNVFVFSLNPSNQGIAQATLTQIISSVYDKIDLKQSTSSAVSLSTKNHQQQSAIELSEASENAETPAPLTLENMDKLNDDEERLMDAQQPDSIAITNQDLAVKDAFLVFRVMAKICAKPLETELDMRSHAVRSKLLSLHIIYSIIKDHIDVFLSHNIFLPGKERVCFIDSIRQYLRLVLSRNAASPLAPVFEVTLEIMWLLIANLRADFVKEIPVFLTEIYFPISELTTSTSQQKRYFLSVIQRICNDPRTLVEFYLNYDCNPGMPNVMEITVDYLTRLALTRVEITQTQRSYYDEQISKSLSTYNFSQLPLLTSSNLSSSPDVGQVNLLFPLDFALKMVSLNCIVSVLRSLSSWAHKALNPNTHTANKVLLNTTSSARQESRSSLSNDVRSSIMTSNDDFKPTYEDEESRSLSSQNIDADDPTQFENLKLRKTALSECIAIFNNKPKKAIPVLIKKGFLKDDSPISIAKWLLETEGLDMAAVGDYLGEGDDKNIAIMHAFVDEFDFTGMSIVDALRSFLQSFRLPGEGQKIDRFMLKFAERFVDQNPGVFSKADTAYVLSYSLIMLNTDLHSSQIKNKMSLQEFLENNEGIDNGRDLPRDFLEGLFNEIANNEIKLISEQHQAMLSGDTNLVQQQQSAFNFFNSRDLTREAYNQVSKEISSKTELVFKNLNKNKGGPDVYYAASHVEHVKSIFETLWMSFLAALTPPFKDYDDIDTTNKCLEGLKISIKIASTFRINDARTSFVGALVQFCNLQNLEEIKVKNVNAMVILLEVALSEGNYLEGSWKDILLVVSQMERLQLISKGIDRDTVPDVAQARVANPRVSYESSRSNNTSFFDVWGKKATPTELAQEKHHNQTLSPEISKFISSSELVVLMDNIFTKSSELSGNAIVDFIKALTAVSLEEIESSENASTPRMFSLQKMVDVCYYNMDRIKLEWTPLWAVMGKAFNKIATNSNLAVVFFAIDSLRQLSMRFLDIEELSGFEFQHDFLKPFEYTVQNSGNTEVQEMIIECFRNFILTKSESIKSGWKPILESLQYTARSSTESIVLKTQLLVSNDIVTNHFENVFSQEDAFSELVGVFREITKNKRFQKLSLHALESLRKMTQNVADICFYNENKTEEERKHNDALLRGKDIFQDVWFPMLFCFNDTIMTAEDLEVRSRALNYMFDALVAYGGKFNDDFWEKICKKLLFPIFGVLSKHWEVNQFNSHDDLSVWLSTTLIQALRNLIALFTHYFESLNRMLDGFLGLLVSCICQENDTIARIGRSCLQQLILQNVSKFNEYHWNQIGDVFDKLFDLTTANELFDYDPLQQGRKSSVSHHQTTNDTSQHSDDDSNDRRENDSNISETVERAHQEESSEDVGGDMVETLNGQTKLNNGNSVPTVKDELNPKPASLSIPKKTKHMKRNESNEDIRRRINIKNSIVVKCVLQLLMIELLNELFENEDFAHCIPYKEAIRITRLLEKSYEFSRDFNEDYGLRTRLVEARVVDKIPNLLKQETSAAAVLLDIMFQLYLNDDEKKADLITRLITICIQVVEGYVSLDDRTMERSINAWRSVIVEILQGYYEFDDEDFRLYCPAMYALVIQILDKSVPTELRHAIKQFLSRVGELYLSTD

Compound: Cc1ccc2oc(C(F)(F)F)cc(=O)c2c1[N+](=O)[O-] [Bragsin1, 6-methyl-5-nitro-2-(trifluoromethyl)-4H-chromen-4-one]
- Effect on function of yeast ArfGEF Sec7p (yeast ArfGEF Sec7p): perturbs the function
- Effect on activation of Arf1 by Sec7 domain in solution (Sec7 domain of BRAG2): no effect
- Effect on activation of Arf1 by Sec7 domain in solution (Sec7 domain of ARNO): no effect
- Effect on activation of Arf1 by Sec7 domain in solution (Sec7 domain of BIG1): no effect
